Assay results taken from patent publication US9096591B2, “Tetracyclic compounds” (Medivation Technologies, Inc., priority 2007, dated 2015).
Values joined by “and” are separate entries in the source; they are usually repeats but may differ in a detail not shown here. Equal entries are not always repeated.

Experiments:
rat brain mitochondria = experiment: Ca2+-induced swelling of mitochondria (MPT pore opening); type: biochemical, Wistar rats; settings: rat brain mitochondria; for A540 increase in mitochondrial suspension after addition of 100 μM of compound: 100 μM compound; for IC50: read-out: IC50, Ca2+-induced (25-50 μM) swelling of brain mitochondria, Ca2+ 25-50 μM
Method: Rat liver and brain mitochondria were prepared from male Wistar rats. The rats were euthanized in a CO2 chamber followed by decapitation the procedure being in compliance with the Guidelines for Animal Experiments at IPAC RAS. […]
Brain mitochondria were isolated from the pooled forebrains of two rats. The modified method of Sims was used to isolate and purify brain mitochondria in a Percoll gradient. The brain was homogenized in “buffer A” (225 mM mannitol, 75 mM sucrose, 5 mM HEPES, 1 mM EGTA, pH 7.4 [KOH]) and centrifuged for 10 min at 1300 g. The supernatant was centrifuged for 10 min at 10000 g, and then the pellet was suspended in 15% Percoll and layered on a discontinuous gradient consisting of 40 and 23% Percoll, respectively, which was then centrifuged for 10 min at 30000 g without using brakes. The mitochondria were collected from the interface of the lower two layers and after resuspension in “buffer A”, the suspension was centrifuged at 16600 g for 10 min, then the pellet was resuspended in “buffer A”, BSA (10 mg/mL) was added to bind free fatty acids; and the suspensions was centrifuged again at 6300 g for 10 min. Following centrifugation the pelleted mitochondria were re-suspended in isolation medium without EGTA to achieve a protein concentration of 15-20 mg/ml.
Mitochondrial swelling caused by influx of solutes through open PT pores results in an increase in light transmission (i.e., a reduced turbidity). This turbidity change offers a convenient and frequently used assay of the MPT by measurement of absorbance in mitochondrial suspensions. In the present study, the MPT induced by Ca^2+ and inorganic phosphate (Ca/Pi) was monitored by absorbance changes at 540 nm in a cuvette in a Beckman DU 640 spectrophotometer in 1 ml of buffer A plus 0.8 μM rotenone, 5 mM succinate, 1 mM KH2PO4 and 0.5 mg or 0.2 mg protein of isolated liver or brain mitochondria, accordingly. Reaction was started by the addition of triggering agent (Ca^2+). Pre-treatment and reaction were performed at 30° C. Swelling rate was quantified as ΔA540/min/mg, calculated, in all cases, from a tangent to the steepest portion of the plot of A540 versus time.
Ca^2+-induced Swelling of mitochondria was used as the primary screening test for compounds influence on MPT pore opening. […] But the inhibition of swelling may be connected not only with direct inhibition of MPT pore opening but also with the impairment of respiratory function of mitochondria and with the compounds action on calcium transport into mitochondria. For the primary estimation of these possibilities the mitochondrial membrane potential and calcium retention capacity of mitochondria were measured. […] New synthesized compounds (except C-14 and C-43) alone induced an increase of brain mitochondria suspension turbidity. The mechanism of such effect needs additional investigations.

[1] = system: synaptosomes of cortex of rat brain; experiment: Glutamate-induced 45Ca2+ uptake into synaptosomes; type: biochemical, Wistar rats; settings: for % Ca of control (control-100%), glutamate-induced 45Ca2+ uptake into synaptosomes: rat cortex synaptosomes
How it was run: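 Cortical synaptosomes (P2 fraction) from 9-10-day-old Wistar rats, ~1.5-2 mg/ml protein in HEPES-buffered saline with glucose, pH 7.4, stimulated 5 min with 200 μM glutamate at 37° C. 45Ca2+ uptake measured by filtration and scintillation counting; specific uptake with compound expressed as percentage of glutamate-induced uptake, each corrected for unstimulated uptake.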

mice = experiment: recognition test of new location of a known object (spatial memory); type: in vivo

| SMILES | A540 increase in mitochondrial suspension after addition of 100 μM of compound (rat brain mitochondria) | IC50 (rat brain mitochondria) | concentration at which glutamate-induced 45Ca2+ uptake into synaptosomes was increased [1] | inhibition of glutamate-induced 45Ca2+ uptake into synaptosomes ([1]; 0.1-0.5 μM) | glutamate-induced 45Ca2+ uptake into synaptosomes of rat cortex, % Ca of control (control-100%) ([1]; C 100 μM) | Influence on memory in the test recognition new localization of known object (mice; Dose of Compound 0.05 mg/kg) | Influence on memory in the test recognition new localization of known object (mice; Dose of Compound 0.1 mg/kg) | Influence on memory in the test recognition new localization of known object (mice; Dose of Compound 0.5 mg/kg) | Influence on memory in the test recognition new localization of known object (mice; Dose of Compound 1.0 mg/kg) | glutamate-induced 45Ca2+ uptake into synaptosomes of rat cortex, % Ca of control (control-100%) ([1]; C 0.1 μM) | glutamate-induced 45Ca2+ uptake into synaptosomes of rat cortex, % Ca of control (control-100%) ([1]; C 0.5 μM) | glutamate-induced 45Ca2+ uptake into synaptosomes of rat cortex, % Ca of control (control-100%) ([1]; C 1.0 μM) | glutamate-induced 45Ca2+ uptake into synaptosomes of rat cortex, % Ca of control (control-100%) ([1]; C 5.0 μM) | glutamate-induced 45Ca2+ uptake into synaptosomes of rat cortex, % Ca of control (control-100%) ([1]; C 10 μM) | glutamate-induced 45Ca2+ uptake into synaptosomes of rat cortex, % Ca of control (control-100%) ([1]; C 25 μM) | glutamate-induced 45Ca2+ uptake into synaptosomes of rat cortex, % Ca of control (control-100%) ([1]; C 50 μM) | further results |
| --- | --- | --- | --- | --- | --- | --- | --- | --- | --- | --- | --- | --- | --- | --- | --- | --- | --- |
| COc1ccc2c(c1)c1c(n2CCc2nc(-c3ccccc3)cs2)CCN(C)C1 [Compound C1-6] | 1.5 rel.units | 12.7 ± 6.2 µM |  |  |  |  |  |  |  |  |  |  |  |  |  |  |  |
| CN1CCc2c(c3cc(F)ccc3n2CCc2nc(-c3ccccc3)cs2)C1 [Compound C1-7] | >30 rel.units | 28 ± 6 µM | 5 to 100 µM | ~27.3% | 139.8% |  |  |  |  |  |  |  |  |  |  |  | % Ca of control (control-100%), glutamate-induced 45Ca2+ uptake into synaptosomes ([1]; compound 0.1 μM): 77.5 ± 2.4%; % Ca of control (control-100%), glutamate-induced 45Ca2+ uptake into synaptosomes ([1]; compound 0.5 μM): 72.7 ± 0.3%; % Ca of control (control-100%), glutamate-induced 45Ca2+ uptake into synaptosomes ([1]; compound 1 μM): 98.6 ± 2.4%; % Ca of control (control-100%), glutamate-induced 45Ca2+ uptake into synaptosomes ([1]; compound 5 μM): 131.8 ± 8.8%; % Ca of control (control-100%), glutamate-induced 45Ca2+ uptake into synaptosomes ([1]; compound 10 μM): 134.5 ± 9.2%; % Ca of control (control-100%), glutamate-induced 45Ca2+ uptake into synaptosomes ([1]; compound 50 μM): 126.7 ± 7.7%; % Ca of control (control-100%), glutamate-induced 45Ca2+ uptake into synaptosomes ([1]; compound 100 μM): 139.8 ± 6.5% |
| CN1CCc2c(c3ccccc3n2CCc2noc(-c3ccccc3)n2)C1 [Compound C4-1] | 10 rel.units | 3.9 ± 1.6 µM |  | about 20% | 115.9 ± 8.8% | − | + | − | − | 79.4 ± 6.1% | 79.2 ± 10% | 106.1 ± 7.9% | 128% and 128 ± 4.5% | 107.6 ± 3.5% | 114.3 ± 0.5% | 110.1 ± 5.1% |  |
| Cc1ccc2c(c1)c1c(n2CCc2noc(-c3ccccc3)n2)CCN(C)C1 [Compound C4-4] | 14 rel.units | 6.7 ± 1.2 µM | 50 to 100 µM |  | 125.3 ± 11.2% | − | + | + | + | 111.2 ± 9.2% | 81.8 ± 14% | 79.5 ± 11.1% | 97.9 ± 4.3% | 99.9 ± 11.7% | 93.6 ± 15.7% | 137.5 ± 5.4% | time after training for which the activating effect on memory is preserved (mice; mice): about 48 hours; effect of the dose on exploration time / memory (in words) (mice; mice, dose 0.05 mg/kg): no effect; time exploring the object in a new location, % of the total time (mice; mice, dose 0.1 mg/kg): 58.5±9.6%; time exploring the object in the known position, % of the total time (mice; mice, dose 0.1 mg/kg): 41.5±9.6%; time exploring the object in a new location, % of the total time (mice; mice, dose 0.5 mg/kg): 59.1±4.2%; time exploring the object in the known position, % of the total time (mice; mice, dose 0.5 mg/kg): 40.9±4.2%; overall effect on memory (in words) (mice; mice, doses 0.05-1 mg/kg): activating effect on memory; concentration at which glutamate-induced 45Ca2+ uptake into synaptosomes was inhibited [1]: 0.5 µM; inhibition of glutamate-induced 45Ca2+ uptake into synaptosomes ([1]; 1 μM (maximal inhibition)): 20.5% |
